From patent publication US20050118202A1, “Solid compositions containing compounds unstable to oxygen and method for stabilization thereof” (priority 2001, published 2005)

Tests used:
Assay type in all cases: physicochemical
[1] = Experimental Example 2: stability of tablet vs bulk powder, 60° C. 2 weeks, HPLC
Experimental: The tablet obtained in Example 1 was put in a capped glass bottle and sealed. After storage at 60° C. for 2 weeks, the contents of the compound A and the related substances in the tablet were measured. Similarly, the bulk powder used for production of the tablet in Example 1 was stored under the same conditions and then the contents of the compound A and the related substances were measured. A comparison of stabilities between the formulated tablet and the bulk powder was made.
(§1) Measurement of the contents of the compound A and the related substances was carried out by a HPLC method under the following conditions: • solvent: water/acetonitrile mixed solution (4:6), • measurement wavelength: 287 nm, • column: XTerra MS C18 3.5 μm 4.6 mm×150 mm (manufactured by Waters Co., Ltd.), • mobile phase: a gradient of 10 mM ammonium acetate solution/acetonitrile mixed solution (4:3) and acetonitril/10 mM ammonium acetate solution mixed solution (9:1), and • oven temperature: around 40° C.

[2] = Experimental Example 1: residual ratio of bulk powders after storage; settings: bulk powder left at 40° C. and 75% RH in atmospheric air for 1 month
Experimental: After the bulk powder of the compound A and sodium ascorbate were left at 40° C. and 75% RH in atmospheric air for 1 month, their residual ratios were measured. As a result, the residual ratio of the compound A was 89.7% (W/W) and the residual ratio of sodium ascorbate was 99.0% (W/W).
The quantitative determination of the compound A was carried out by a HPLC method under the following conditions: • solvent: acetonitrile, • measurement wavelength: 287 nm, • column: CHIRALCEL OJ-R 4.6×150 mm (manufactured by Daicel Chemical Industries, Ltd. CPI Co.), • mobile phase: a mixed (16:9) solution of acetonitrile/10 mM ammonium acetate aqueous solution, • oven temperature: around 25° C.
The quantitative determination of sodium ascorbate was carried out by iodine titration method (solvent: metaphosphoric acid solution (1→50), indicator: starch reagent solution).

[3] = Experimental Example 3: stability of tablets with/without sodium ascorbate, 40° C. 1 month, HPLC
Experimental: as §1
The equilibrium moisture content (ERH) of each tablet was measured by the following method. The results were 3.0% and 3.4%, respectively.
These tablets were put in a capped glass bottle and sealed. After storage at 40° C. for 1 month, the contents of the compound A and the related substances were measured. The content of the compound A was measured in the same manner as the measurement method in Experimental Example 2, except that a water/acetonitrile mixed solution (4:6) was used as a solvent. The measurement of the related substances was carried out in the same manner as […].

[4] = initial: immediately after production
[5] = sealed capped glass bottle, after 2-week storage at 60° C.
[6] = content in the bulk used for Examples 5 and 7

Related substance C [1, 4] [%] | Related substance D [1, 4] [%] | Related substance E [1, 4] [%] | Related substance F [1, 4] [%] | related substance A [1, 4] [%] | residual ratio [1, 4] [%] | Related substance C [1, 5] [%] | Related substance D [1, 5] [%] | Related substance E [1, 5] [%] | Related substance F [1, 5] [%] | related substance A [1, 5] [%] | related substance B [1, 5] [%] | residual ratio [1, 5] [%] | residual ratio [2] | Related substance C [3, 6] [%] | Related substance D [3, 6] [%] | Related substance E [3, 6] [%] | related substance A [3, 6] [%] | related substance B [3, 6] [%] | related substance A ([3]; content in the bulk used, last item of the list A to F (second mention of A)) [%] | SMILES
0.24 | 0.32 | 0.13 | 3.01 | 0.46 | 100.0 | 1.13 | 2.12 | 0.78 | 10.41 | 1.74 | 0.59 | 87.9 | 89.7 % (W/W) | 0.40 | 0.43 | 0.08 | 0.31 | 0.08 | 2.69 | COc1cc2c(cc1OC)CN(c1c(C)c(C)c3c(c1C)[C@@H](c1ccc(C)cc1)C(C)(C)O3)C2 [compound A, (R)-(+)-5,6-dimethoxy-2-[2,2,4,6,7-pentamethyl-3-(4-methylphenyl)-2,3-dihydro-1-benzofuran-5-yl]isoindoline]
– | – | – | – | – | – | – | – | – | – | – | – | – | 99.0 % (W/W) | – | – | – | – | – | – | O=C1O[C@H]([C@@H](O)CO)C([O-])=C1O.[Na+] [sodium ascorbate]
